Assay results as given in ChEMBL document CHEMBL1150533, “Inhibitors of the adenovirus type 2 proteinase based on substrate-like tetrapeptide nitriles” (Bioorg Med Chem Lett, 1995).
Peptide text beside a SMILES is read from it. * marks the point of attachment. Cbz = O=C(OCc1ccccc1)*; Boc = CC(C)(C)OC(=O)*; N(Me)OMe = CON(C)*; OtBu = CC(C)(C)O*; NMeEt = CCN(C)*

Legend:
Type in all cases: functional
Human adenovirus 2 [1] = test: Compound was tested for inhibition of Adenovirus type 2 proteinase; conditions: Human mastadenovirus C
Human adenovirus 2 [2] = test: Inhibitory activity against Adenovirus type 2 proteinase; parameters: concentration or dose not given beside the values
Human adenovirus 2 [3] = test: Compound was tested for noncompetitive inhibition of Adenovirus type 2 proteinase
Human adenovirus 2 [4] = test: Compound was tested for inhibition of Adenovirus type 2 proteinase; showed no inhibitory activity; parameters: concentration or dose not given beside the values
Human adenovirus 2 [5] = test: Compound was tested for inhibition of Adenovirus type 2 proteinase; Not very soluble and inactive at maximum soluble concentration
Human adenovirus 2 [6] = test: Inhibitory activity against Adenovirus type 2 proteinase; showed no inhibitory activity

SMILES | Inhibition (Human adenovirus 2 [2]) [%] | Inhibition (Human adenovirus 2 [4]) [%] | also measured
CC(C)C[C@H](NC(=O)C(F)(F)F)C(=O)N[C@@H](C)C(=O)NCC(=O)NCC#N | 50 | – | IC50 (Human adenovirus 2 [1]): 6900 µM
CC(C)C[C@H](NC(=O)OCc1ccccc1)C(=O)N[C@@H](C)C(=O)NCC(=O)NCC#N | 95 | – | Ki (Human adenovirus 2 [3]): 16 µM; IC50 (Human adenovirus 2 [1]): 10 µM
COC(CNC(=O)CNC(=O)[C@H](C)NC(=O)[C@H](CC(C)C)NC(=O)OCc1ccccc1)OC | 59 | – | Ki (Human adenovirus 2 [3]): 380 µM; IC50 (Human adenovirus 2 [1]): 400 µM
COC(CNC(=O)CNC(=O)[C@H](C)NC(=O)[C@H](CC(C)C)NC(=O)OC(C)(C)C)OC | 59 | – | IC50 (Human adenovirus 2 [1]): 1800 µM
C[C@H](NC(=O)C(F)(F)F)C(=O)NCC(=O)NCC#N | 5 | – | –
N#CCNC(=O)CNC(=O)C(F)(F)F | – | 0 | –
Cl.N#CCN | – | 0 | –
CC(C)C[C@H](NC(=O)OC(C)(C)C)C(=O)N[C@@H](C)C(=O)NCC(=O)NCC(=O)OC(C)(C)C (Boc-LAGG-OtBu) | 40 | – | –
CC(C)C[C@H](NC(=O)OCc1ccccc1)C(=O)N[C@@H](C)C(=O)NCC(=O)NCC(N)=O (Cbz-LAGG-NH2) | – | – | Inhibition (Human adenovirus 2 [5]): 0%
CNC(=O)CNC(=O)CNC(=O)[C@H](C)NC(=O)[C@H](CC(C)C)NC(=O)OCc1ccccc1 (Cbz-LAGG-NHMe) | – | – | Inhibition (Human adenovirus 2 [5]): 0%
CC(C)C[C@H](NC(=O)OCc1ccccc1)C(=O)N[C@@H](C)C(=O)NCC(=O)NCC(=O)N(C)C (Cbz-LAGG-NMe2) | – | 0 | –
CCN(C)C(=O)CNC(=O)CNC(=O)[C@H](C)NC(=O)[C@H](CC(C)C)NC(=O)OCc1ccccc1 (Cbz-LAGG-NMeEt) | – | 0 | –
CCOC(=O)CNC(=O)CNC(=O)[C@H](C)NC(=O)[C@H](CC(C)C)NC(=O)OCc1ccccc1 (Cbz-LAGG-OEt) | 67 | – | –
CC(C)C[C@H](NC(=O)OCc1ccccc1)C(=O)N[C@@H](C)C(=O)NCC(=O)NCC(=O)O (Cbz-LAGG-OH) | – | – | Inhibition (Human adenovirus 2 [6]): 0%
COC(=O)CNC(=O)CNC(=O)[C@H](C)NC(=O)[C@H](CC(C)C)NC(=O)OCc1ccccc1 (Cbz-LAGG-OMe) | 72 | – | –
CON(C)C(=O)CNC(=O)CNC(=O)[C@H](C)NC(=O)[C@H](CC(C)C)NC(=O)OCc1ccccc1 (Cbz-LAGG-{N(Me)OMe}) | – | 0 | –
CC(C)C[C@H](N)C(=O)N[C@@H](C)C(=O)NCC(=O)NCC(N)=O (H-LAGG-NH2) | – | 0 | –
CNC(=O)CNC(=O)CNC(=O)[C@H](C)NC(=O)[C@@H](N)CC(C)C (H-LAGG-NHMe) | – | 0 | –
